Test results from PubChem BioAssay (NCI).
Values joined by “and” are separate entries in the source; they are usually repeats but may differ in a detail not shown here. Equal values may be shown once.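 Values below derive from 48-hour exposures of cells grown in 96-well plates, with endpoints linearly interpolated between the two concentrations bracketing the appropriate inhibition level. At the GI50, growth is halved. TGI is the concentration that stops growth completely.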

Legend:
Assay in all cases: NCI anticancer screen, dose series, 48 h
SK-MEL-2 melanoma = system: SK-MEL-2 melanoma
SF-539 CNS = system: SF-539 CNS
SK-MEL-28 melanoma = system: SK-MEL-28 melanoma
786-0 renal = system: 786-0 renal
SNB-19 CNS = system: SNB-19 CNS
NCI/ADR-RES ovarian = system: NCI/ADR-RES ovarian
OVCAR-4 ovarian = system: OVCAR-4 ovarian
MALME-3M melanoma = system: MALME-3M melanoma
A549 NSCLC = system: A549 NSCLC
NCI-H460 lung = system: NCI-H460 lung

| SMILES | GI50 (SK-MEL-2 melanoma) | TGI (SK-MEL-2 melanoma) | GI50 (SF-539 CNS) | TGI (SF-539 CNS) | GI50 (SK-MEL-28 melanoma) | TGI (SK-MEL-28 melanoma) | GI50 (786-0 renal) | TGI (786-0 renal) | GI50 (SNB-19 CNS) | TGI (SNB-19 CNS) | TGI (NCI/ADR-RES ovarian) | GI50 (OVCAR-4 ovarian) | TGI (OVCAR-4 ovarian) | GI50 (MALME-3M melanoma) | TGI (MALME-3M melanoma) | GI50 (A549 NSCLC) | TGI (A549 NSCLC) | GI50 (NCI-H460 lung) | TGI (NCI-H460 lung) | GI50 (NCI/ADR-RES ovarian) [µM] |
| --- | --- | --- | --- | --- | --- | --- | --- | --- | --- | --- | --- | --- | --- | --- | --- | --- | --- | --- | --- | --- |
| O=C(/C=C/c1cccc(S(=O)(=O)Nc2ccccc2)c1)NO | 2.34 µM and 5.73 µM | 15.6 µM and > 71.2 µM | 0.696 µM and 0.13 µM | 20.9 µM and 23.9 µM | 1 µM and 1.55 µM | 10.3 µM and 51.8 µM | 2.17 µM and 0.934 µM | 12.6 µM and 11.2 µM | 0.841 µM and 0.835 µM | 19.5 µM and 41.5 µM | 6.51 µM | 1.98 µM and 1.08 µM | > 100 µM | 0.251 µM and 0.0447 µM | 13.8 µM and 3.12 µM | 0.459 µM and 0.0805 µM | 17.8 µM and 44.4 µM | 0.376 µM and 0.116 µM | 34 µM and 5.42 µM | – |
| COc1ccc(/C=C/C(=O)c2ccc(Nc3nc(Nc4ccc(F)cc4)nc(Nc4ccc(Cl)cc4)n3)cc2)cc1 | 41.3 µM | > 100 µM | 2.23 µM | 19 µM | > 100 µM | > 100 µM | > 100 µM | > 100 µM | > 100 µM | > 100 µM | > 100 µM | > 100 µM | > 100 µM | > 100 µM | > 100 µM | > 100 µM | > 100 µM | 9.91 µM | 84.3 µM | > 100 |
| C=C1C(=O)OC2CC1C(OC(C)=O)C/C(C)=C/CC/C(C)=C\CCC2(C)O (configuration not stated) | 8.67 µM and 21.4 µM | 22.5 µM and > 100 µM | – | 18.4 µM and 12.7 µM | – | 11.2 µM and 15.7 µM | – | 10.5 µM and 19.9 µM | – | 40.1 µM and 32 µM | 15.4 µM and 17.4 µM | – | 21 µM and 19.2 µM | – | 15 µM | – | 33.2 µM and 51.1 µM | – | 14.1 µM and 8.22 µM | – |
| N#C/C(=C\c1ccc(F)cc1)n1nc2cccc(F)c2n1 | 5.26 µM | > 100 µM | 3.14 µM | 11.1 µM | 5.8 µM | > 100 µM | 7.13 µM | > 100 µM | 6.67 µM | > 100 µM | 14.8 µM | 4.19 µM | > 100 µM | 5.03 µM | > 100 µM | 4.01 µM | > 100 µM | 3.01 µM | 12.9 µM | 2.99 |
| O=C(Cc1ccc(Nc2ccnc(C(F)(F)F)c2)cc1)N/N=C/c1ccccc1O | 3.12 µM | 24.5 µM | 2.44 µM | 12.2 µM | 3.89 µM | 61.4 µM | 3.59 µM | > 62.7 µM | 4.36 µM | > 100 µM | 33 µM | 3.29 µM | > 100 µM | 4.07 µM | > 38.4 µM | 4.49 µM | > 100 µM | 1.37 µM | 10.6 µM | 2.83 |
| CCOC(=O)Nc1ccc2c(c1)N(C(=O)CCN(CC)CC)c1ccccc1S2 | 30.5 µM | 43.6 µM and 83.7 µM | 12.7 µM | 48.5 µM and 43.5 µM | 60.3 µM | 57.1 µM and 126 µM | – | 69.8 µM | 13.5 µM | 41.1 µM | 86.8 µM | 84 µM | 234 µM | 29.1 µM | 34.4 µM and 70.3 µM | 58.3 µM | 125 µM | – | 57.1 µM | – |
| Cc1cc(=O)oc2cc(OC(=O)Nc3ccccc3)ccc12 | – | > 100 µM | – | > 100 µM | – | > 100 µM | – | > 100 µM | – | > 100 µM | > 100 µM | – | > 100 µM | – | > 100 µM | – | > 100 µM | – | > 100 µM | – |
| O=C1/C(=C\c2ccccc2)CN(C(=O)c2ccccc2)C/C1=C\c1ccccc1 | 3.5 µM | 8.96 µM | 2.27 µM | 6.24 µM | 1.82 µM | 3.47 µM | 2 µM | 4.44 µM | 3.79 µM | 15.1 µM | 37.6 µM | 2.98 µM | 11.4 µM | 2.96 µM | 7.17 µM | 3.63 µM | 16.3 µM | 2.8 µM | 8.48 µM | 3.69 |
